From patent US4435404A, “Carbostyril derivatives” (priority 1980, dated 1984)
pIC50: −log10 of the molar value.

Columns and labels:
bastard dog = experiment: Increasing effect of cerebral blood flow; type: in vivo; details: profunda femoris vein
Experimental: Thus, a bastard dog (male, 12-20 kg of body weight) was fixed in a prone (position) and was anesthetized with 20 mg/kg of pentobarbital sodium and made forced breathing to kept the frequency of respiration at 20 times/minutes. Then, the skull was bared and the surface bone was removed to expose the venous sinus by using grinder and the venous blood was took out from the venas which was cannulizated. The amount of venous blood flow was measured by using an electromagnetic blood flow meter and next measured by using drop-counter by measuring the number of drops of blood per 10 seconds.
The increasing effect of cerebral blood flow was calculated by comparing the number of blood drops in 30 seconds at the peak of increasement shown before and after the administration of compound to be tested. The each of compounds to be tested was dissolved in dimethylformamide and diluted with physiological saline solution and administered through a cannule being inserted into the profunda femoris vein.

[1] = target: T1, cyclic AMP phosphodiesterase (Oryctolagus cuniculus, UniProt G1ST54); experiment: Obstructive action against cyclic AMP phosphodiesterase; type: biochemical; details: rabbit platelet enzyme, 30° C., 20 minutes
T1 construct: the supernatant was collected to use it as a crude enzyme solution; from tissue; host or cells: rabbit platelets (from platelet-rich plasma)
T1 sequence (G1ST54 1-1128): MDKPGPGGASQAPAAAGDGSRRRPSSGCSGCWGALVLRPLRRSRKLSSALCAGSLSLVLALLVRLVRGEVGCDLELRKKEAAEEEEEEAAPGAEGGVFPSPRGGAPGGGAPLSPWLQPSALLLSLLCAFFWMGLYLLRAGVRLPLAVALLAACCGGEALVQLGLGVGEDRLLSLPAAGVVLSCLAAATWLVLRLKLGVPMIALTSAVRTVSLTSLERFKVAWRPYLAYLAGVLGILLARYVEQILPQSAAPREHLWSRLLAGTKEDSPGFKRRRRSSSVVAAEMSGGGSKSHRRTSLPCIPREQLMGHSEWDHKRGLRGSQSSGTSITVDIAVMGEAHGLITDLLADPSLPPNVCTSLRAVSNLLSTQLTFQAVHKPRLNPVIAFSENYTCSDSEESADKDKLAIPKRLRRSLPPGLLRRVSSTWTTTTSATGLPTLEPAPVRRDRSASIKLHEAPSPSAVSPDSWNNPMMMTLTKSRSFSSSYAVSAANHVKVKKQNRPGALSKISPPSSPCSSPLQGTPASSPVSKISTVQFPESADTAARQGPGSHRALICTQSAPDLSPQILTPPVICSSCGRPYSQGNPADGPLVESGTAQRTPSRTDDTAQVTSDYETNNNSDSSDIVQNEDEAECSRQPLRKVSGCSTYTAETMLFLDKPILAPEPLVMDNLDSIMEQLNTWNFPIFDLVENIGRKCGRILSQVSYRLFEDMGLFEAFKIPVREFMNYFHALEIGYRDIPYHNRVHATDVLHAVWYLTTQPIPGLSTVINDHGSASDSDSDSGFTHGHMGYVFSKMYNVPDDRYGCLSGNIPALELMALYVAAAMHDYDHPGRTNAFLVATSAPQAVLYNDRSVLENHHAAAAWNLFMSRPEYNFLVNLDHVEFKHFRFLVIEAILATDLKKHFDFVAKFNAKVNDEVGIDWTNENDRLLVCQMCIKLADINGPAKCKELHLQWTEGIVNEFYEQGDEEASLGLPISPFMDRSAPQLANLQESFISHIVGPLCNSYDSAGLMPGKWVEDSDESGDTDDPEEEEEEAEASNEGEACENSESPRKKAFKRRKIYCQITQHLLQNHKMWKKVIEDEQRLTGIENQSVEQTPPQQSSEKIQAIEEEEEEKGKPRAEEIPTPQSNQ
Experimental: That is, for determining the obstructive activity against cyclic AMP phosphodiesterase, 10 ml of a solution obtained by adding 1 mmol of MgCl2 into 50 mmol of tris-hydrochloric acid buffer with pH 7.4 was added to the platelets obtained by further centrifuging the above-said rabbit PRP at 3,000 r.p.m. for 10 minutes, and the suspended platelets were ground by a Teflon potter type homogenizer. This was followed by two times of freezing and thawing treatment and 300-second fracturing with 200 watt supersonic waves. After additional 60-minute centrifugation with 100,000 G, the supernatant was collected to use it as a crude enzyme solution.
10 Milliliters of this crude buffer solution was added to a 1.5×20 cm DEAE-cellulose column which has previously been buffered with 50 mM of tris-acetate buffer (pH 6.0), followed by washing and elution with 30 ml of 50 mM tris-acetate buffer, and this buffer solution was subjected to linear gradient elution with 0 to 0.5 moles of sodium acetate-tris-acetatebuffer (total amount of elute was 300 ml.). The flow rate was 0.5 ml/min, and 5 ml of each fraction was batched out. […] This fraction was used as cyclic AMP phosphodiesterase.
0.1 Milliliter of an aqueous solution of each test compound of a specified concentration was mixed with 40 mmol of tris-hydrochloric acid buffer (pH 8.0, containing 50 μg of cow serum albumin and 4 mmol of MgCl2) containing predetermined 1.0 μmol of cyclic AMP (tritium cyclic AMP), and 0.2 ml of this mixed solution was used as substrate solution.
0.2 Milliliter of the above-prepared cyclic AMP phosphodiesterase of a predetermined concentration was added to said substrate solution and the mixture was reacted at 30° C. for 20 minutes, producing tritium 5'-AMP from the tritium cyclic AMP.
The reaction system was then immersed in boiling water for 2 minutes to stop the reaction, and then this reaction solution was cooled in ice water and, for converting the produced tritium 5'-AMP into tritium adenosine, the solution was added with 0.05 ml (1 mg/ml) of snake poison as 5'-nucleotidase and reacted at 30° C. for 10 minutes. The whole amount of this reaction solution was then added to a cation exchange resin (AG 500 W×4, 200-400 meshes, manufactured by Bio-Rad Co., column size: 0.5×1.5 cm), and the produced tritium anodesine alone was allowed to combine, washed with 6 ml of distilled water and eluted with 1.5 ml of 3 N-ammonia water. The whole quantity of the elutant was added with 10 ml of a triton-toluene type scintillator and the produced tritium adenosine was measured by a liquid scintillation counter to determine the phosphodiesterase activity.
In this way, the phosphodiesterase activation value (Vs) of the test compounds of the respective concentrations was determined, and the phosphodiesterase obstruction rate (%) was determined from said activation value (Vs) and control value (Vc) (obtained from water not containing any test compound) from the following formula: [formula] Known 1-methyl-3-isobutylxanthine was used as control.

[2] = system: ADP-induced aggregation in rabbit platelet; experiment: Inhibition effect on ADP-induced aggregation in rabbit platelet; type: cell-based; details: Oryctolagus cuniculus, Platelet; for inhibition at 100 µM: concentration of the test compound solution 10^-4 mole; for inhibition at 10 µM: concentration of the test compound solution 10^-5 mole; for inhibition at 1 µM: concentration of the test compound solution 10^-6 mole
Experimental: (§1) The platelet aggregation inhibitory effect is measured by using AG-II aggregometer (manufactured by Bryston Manufacturing Co.). The blood sample used for the test is a 1/9 (by volume) mixture of sodium citrate and whole blood collected from rabbit. Said sample is subjected to 10-minute centrifugal separation at 1,000 r.p.m. to obtain a platelet rich plasma (PRP). The thus obtained PRP is separated, and the remaining blood sample is further subjected to 15-minute centrifugal separation at 3,000 r.p.m. to obtain a platelet poor plasma (PPP).
(§2) The number of platelets in the PRP is counted by the Brecher-Clonkite Method, and the PRP is diluted with the PPP to prepare a PRP sample with platelet concentration of 300,000/mm^3 for the adenosine diphosphate (ADP)-induced aggregation test. There is also prepared a PRP sample with platelet concentration of 450,000/mm^3 for the collagen-induced aggregation test.
(§3) 0.6 Milliliter of said PRP sample is added into 0.01 ml of a solution of a test compound of a predetermined concentration and the mixture is placed in a 37° C. thermostat for one minute. Then 0.07 ml of an ADP or collagen solution is added to the mixture. Transmittance of this mixture is determined and the change of transmittance is recorded by using the aggregometer at stirrer speed of 1,100 r.p.m. […] The ADP solution is adjusted to a concentration of 7.5×10^-5 M, and the collagen solution is prepared by triturating 100 mg of collagen with 5 ml of said buffer and the supernatant is used as collagen inducer. Acetylsalicylic acid is used as control for the ADP-induced aggregation test and the collagen-induced aggregation test, respectively. The platelet aggregation inhibitory effect is measured in terms of percent inhibition with respect to the aggregation rate of the controls. The aggregation rate is calculated from the following formula:
(§4) Aggregation rate=[(c-a)/(b-a)]×100
(§5) b: transmittance of PRP containing a test compound and an aggregation inducer

[3] = system: collagen-induced aggregation in rabbit platelet; experiment: Inhibition effect on collagen-induced aggregation in rabbit platelet; type: cell-based; details: Oryctolagus cuniculus, Platelet, read-out: Inhibition effect on collagen-induced aggregation; for inhibition at 10 µM: concentration of the test compound solution 10^-5 mole; for inhibition at 1 µM: concentration of the test compound solution 10^-6 mole
Experimental: as §1, §2, §3, §4, §5

Acute Toxicity Test = details: mouse, in vivo; male mice, oral administration
Experimental: The test compounds were administered orally to the mice and LD50 (mg/kg) of the compounds was determined.

[4] = read-out: Inhibition effect on ADP-induced aggregation

For “6-{3-[N-(2-Hydroxyethyl)-N-cyclooctylaminocarbonyl]propoxy}-3,4-dihydrocarbostyril [Example 5]”, the “Increasing effect of cerebral blood flow” value (bastard dog; dosage 100 μg/kg) was 43.5%.
For “6-{3-[N-(4-Hydroxybutyl)-N-cyclohexylaminocarbonyl]propoxy}carbostyril [Example 7]”, the “Increasing effect of cerebral blood flow” value (bastard dog; dosage 300 μg/kg) was 80.2%.
In the case of “6-{4-[N-(2,3-Dihydroxypropyl)-N-cyclohexylaminocarbonyl]butoxy}carbostyril [Example 14]”, the “Increasing effect of cerebral blood flow” value (bastard dog; dosage 100 μg/kg) was 51.6%.
For “6-{4-[N-(2-Hydroxybutyl)-N-cyclohexylaminocarbonyl]butoxy}carbostyril [Example 13]”, the “Increasing effect of cerebral blood flow” value (bastard dog; dosage 30 μg/kg) was 98.9%.
With “6-{4-[N-(2-Hydroxybutyl)-N-cyclopentylaminocarbonyl]butoxy}-3,4-dihydrocarbostyril [Example 12]” the “Increasing effect of cerebral blood flow” value (bastard dog; dosage 300 μg/kg) was 73.5%.
In the case of `CC(C)Cn1c(=O)n(C)c(=O)c2[nH]cnc21` [1-Methyl-3-isobutylxanthine, 1-methyl-3-isobutylxanthine, reference compound], the pIC50 [1] was 6.27.
`CCN(C(=O)CCCOc1ccc2[nH]c(=O)ccc2c1)c1ccccn1` [No. 3, 6-{3-[N-Ethyl-N-(2-pyridyl)aminocarbonyl]propoxy}carbostyril] gave an inhibition at 100 µM [2] of 100%, an inhibition at 10 µM [2, 4] of 31% and an inhibition at 1 µM [2, 4] of 10%. For the same molecule, the pIC50 [1] was 6.40, the inhibition at 10 µM [3] was 100% and the inhibition at 1 µM [3] was 14%. For the same molecule, the LD50 (Acute Toxicity Test) was greater than 1000 mg/kg.
With `CN(Cc1ccco1)C(=O)CCCOc1ccc2[nH]c(=O)ccc2c1` [No. 4, 6-{3-[N-Methyl-N-(2-furylmethyl)aminocarbonyl]propoxy}carbostyril] the inhibition at 100 µM [2] was 85.7%, the inhibition at 10 µM [2, 4] was 13.7% and the pIC50 [1] was 6.22. For the same molecule, the inhibition at 100 µM ([3]; concentration of the test compound solution 10^-4 mole) was 92.5%, the inhibition at 10 µM [3] was 35.8% and the inhibition at 1 µM [3] was 4%. It also gave an LD50 (Acute Toxicity Test) greater than 1000 mg/kg.
`O=C(OCCN(C(=O)CCCOc1ccc2[nH]c(=O)ccc2c1)C1CCCCC1)c1ccccc1` [No. 10, 6-{3-[N-(2-Benzoyloxyethyl)-N-cyclohexylaminocarbonyl]propoxy}carbostyril] showed an inhibition at 100 µM [2] of 100%, an inhibition at 10 µM [2, 4] of 80.7% and an inhibition at 1 µM [2, 4] of 42.6%. It also gave an inhibition at 0.1 µM ([2]; concentration of the test compound solution 10^-7 mole, read-out: Inhibition effect on ADP-induced aggregation) of 7.1%, a pIC50 [1] of 7.92 and an inhibition at 10 µM [3] of 100%. It also gave an inhibition at 1 µM [3] of 100%, an inhibition at 0.1 µM ([3]; concentration of the test compound solution 10^-7 mole) of 56.7% and an LD50 (Acute Toxicity Test) greater than 1000 mg/kg.
`CCCCN(CC1CCCCO1)C(=O)CCCCOc1ccc2c(c1)CCC(=O)N2` (stereo not drawn) [No. 12, 6-{4-[N-Butyl-N-(2-tetrahydropyranylmethyl)aminocarbonyl]butoxy}-3,4-dihydrocarbostyril] gave an inhibition at 100 µM [2] of 100%, an inhibition at 10 µM [2, 4] of 40.2% and an inhibition at 1 µM [2, 4] of 8.3%. It also gave a pIC50 [1] of 7.60, an inhibition at 10 µM [3] of 100% and an inhibition at 1 µM [3] of 10.3%. The LD50 (Acute Toxicity Test) was greater than 1000 mg/kg.
With `O=C1CCc2cc(OCCCC(=O)N3CCN(Cc4ccccc4)CC3)ccc2N1` [No. 15, 6-[3-(4-Benzyl-1-piperazinylcarbonyl)propoxy]-3,4-dihydrocarbostyril] the inhibition at 100 µM [2] was 100%, the inhibition at 10 µM [2, 4] was 100% and the inhibition at 1 µM [2, 4] was 25.8%. It also gave a pIC50 [1] of 7.40, an inhibition at 10 µM [3] of 98.8% and an inhibition at 1 µM [3] of 24.6%. For the same molecule, the LD50 (Acute Toxicity Test) was greater than 1000 mg/kg.
For `CC(=O)OC1CCC(N(C)C(=O)CCCOc2ccc3[nH]c(=O)ccc3c2)CC1` (stereo not drawn) [No. 26, 6-{3-[N--Methyl-N--(4-acetyloxycyclohexyl)aminocarbonyl]propoxy}carbostyril, reference compound], the pIC50 [1] was 8.18.
For `COc1ccc(Cc2nccc3cc(OC)c(OC)cc23)cc1OC` [Papaverin, papaverine, reference compound], the “Increasing effect of cerebral blood flow” value (bastard dog; dosage 1,000 μg/kg) was 86.0%.
